Key:
[1] = Plasma pharmacokinetics of dovitinib, gemcitabine and capecitabine by LC/MS/MS; format: in vivo, human; settings: for half-life: human, oral, 300 mg, median half-life (T1/2), dovitinib 300 mg
basic FGF (bFGF) = test: Plasma bFGF Quantikine ELISA; format: in vivo, human; settings: 5 patients, baseline vs after 19 days of dovitinib 300 mg
VEGF = test: Plasma VEGF Quantikine ELISA; format: in vivo, human; settings: 5 patients, baseline vs after 19 days of dovitinib 300 mg
FGF23 = test: Plasma FGF23 sandwich ELISA; format: in vivo, human; settings: out of 5 patients with paired samples; during the first cycle; dovitinib 300 mg daily 5 days on and 2 days off with gemcitabine and capecitabine
CYP 1A1/2 = settings: cited from earlier work
[2] = biological target: fibroblast growth factor receptors (FGFRs); settings: read-out: IC50 against FGFRs; cited from earlier work
[3] = human, in vivo
[4] = AUC 0–8 hours, Day 1, capecitabine 1300 mg/m^2 total daily oral dose divided twice a day, concurrently with dovitinib 300 mg and gemcitabine, N=7
[5] = Day 1, capecitabine 1300 mg/m^2 total daily oral dose divided twice a day, concurrently with dovitinib 300 mg and gemcitabine, plasma, N=5
[6] = Day 1, capecitabine 1300 mg/m^2 total daily oral dose divided twice a day, concurrently with dovitinib 300 mg and gemcitabine, plasma, N=7
[7] = AUC 0–7.5 hours, Day 1, gemcitabine 1000 mg/m^2 intravenously, concurrently with dovitinib 300 mg and capecitabine, N=7

## CCCCCOC(=O)Nc1nc(=O)n([C@@H]2O[C@H](C)[C@@H](O)[C@H]2O)cc1F [capecitabine]
[1]; [4]
  AUC Max: 14439 ng·h/mL
  AUC Min: 488 ng·h/mL
[1]; [5]
  T1/2 Max: 4.07 h
  T1/2 Min: 0.68 h
[1]; [6]
  Cmax Max: 30300 ng/mL
  Cmax Min: 98.8 ng/mL

## CN1CCN(c2ccc3nc(-c4c(N)c5c(F)cccc5[nH]c4=O)[nH]c3c2)CC1 [dovitinib]
Basic FGF (bFGF)
  changes of bFGF plasma level: no observable trend
[1]; 300 mg daily dose on 5 days on and 2 days off schedule
  difference in dovitinib level between Day1 and 19 (autoinduction): did not observe significant difference
[1]; dovitinib 300 mg dose, Day 1 vs Day 19 Cmax and AUC
  accumulation following 3 weeks of dosing: slight accumulation
[1]; plasma, Day 1
  half-life: ~15 h
[1]; plasma, Day 19
  half-life: ~13 h
VEGF
  changes of VEGF plasma level: no observable trend
FGF23
  patients with increased plasma FGF23 level: 4 patients
CYP 1A1/2
  metabolizing enzymes: mainly metabolized by CYP 1A1/2 and flavin-containing monooxygenase
[2]
  IC50: < 10 nM
[3]; 1 cycle
  patients with dose limiting toxicity (grade 3 colitis): 1
[3]; po, 21 day
  recommended dose for expansion / RP2D: 300 mg

## Nc1ccn([C@@H]2O[C@H](CO)[C@@H](O)C2(F)F)c(=O)n1 [gemcitabine]
[1]; [7]
  AUC Max: 12222 ng·h/mL
  AUC Min: 6370 ng·h/mL

Source: PMC6345595 (American journal of clinical oncology, 2019)
